Like-named read-outs stand apart in the source and are kept apart here.
Tests used:
[1] = Cell growth assay (WST-8) for "B" compounds; assay type: cell-based; conditions: T47D, read-out: Cell growth Inhibition in T47D cell line IC50
Summary of the method: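 Cells seeded at 1500/well overnight, then exposed to compounds for 4 days. 10% WST-8 added for 2.5 h at 37 °C and absorbance read at 450 nm. Growth given as absorbance relative to vehicle control, from three repeats.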

ER = ER (Homo sapiens (Human), UniProt P03372); assay: In-cell western blot analysis of ER for "B" compounds; assay type: cell-based; conditions: 16 hours, read-out: ICW DC50
Summary of the method: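 In-cell western: fixed cells stained with primary antibodies (2 h, RT), then anti-rabbit-680 and anti-mouse-800 secondaries (1:1000, 1 h, RT), imaged on a LI-COR plate reader. Relative ER level in treated wells expressed against untreated and DMSO-treated wells set as 100%.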

ER, sequence (P03372 whole entry): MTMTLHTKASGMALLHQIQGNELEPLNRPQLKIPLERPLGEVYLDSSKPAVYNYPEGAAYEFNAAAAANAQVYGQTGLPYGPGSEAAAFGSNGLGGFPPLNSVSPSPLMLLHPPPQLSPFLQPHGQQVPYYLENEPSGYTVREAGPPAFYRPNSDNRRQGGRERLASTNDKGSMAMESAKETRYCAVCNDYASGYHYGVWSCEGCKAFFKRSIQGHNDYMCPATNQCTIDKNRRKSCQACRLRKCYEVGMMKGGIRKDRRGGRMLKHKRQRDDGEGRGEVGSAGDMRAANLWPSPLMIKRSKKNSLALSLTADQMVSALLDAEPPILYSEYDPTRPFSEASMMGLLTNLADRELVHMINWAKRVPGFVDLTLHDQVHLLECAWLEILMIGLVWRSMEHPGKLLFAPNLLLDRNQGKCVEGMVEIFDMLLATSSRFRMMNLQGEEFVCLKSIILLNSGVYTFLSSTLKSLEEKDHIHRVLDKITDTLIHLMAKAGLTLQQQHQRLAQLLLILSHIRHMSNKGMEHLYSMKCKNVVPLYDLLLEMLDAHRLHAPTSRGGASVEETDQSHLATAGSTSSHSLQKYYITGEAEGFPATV

Compound | IC50 ([1]; T47D cell line) [nM] | DC50 (ER) [nM] | IC50 [1] [nM]
CN(C(=O)c1ccc2c(n1)OC[C@H]1CN(CC3COC4(CCN(c5ccc([C@@H]6c7ccc(O)cc7CC[C@@H]6c6ccccc6)cc5)CC4)C3)CCN21)C1CCC(=O)NC1=O (stereo partly drawn) [Compound B237, (4aR)-N-(2,6-dioxopiperidin-3-yl)-3-((8-(4-((1R,2S)-6-hydroxy-2-phenyl-1,2,3,4-tetrahydronaphthalen-1-yl)phenyl)-1-oxa-8-azaspiro[4.5]decan-3-yl)methyl)-N-methyl-1,2,3,4,4a,5-hexahydropyrazino[1,2-d]pyrido[2,3-b][1,4]oxazine-8-carboxamide] | 1 to 10 | > 100 | 
O=C1CCC(N2Cc3cc4c(cc3C2=O)OC[C@@H]2CN(CC3COC5(CCN(c6ccc([C@@H]7c8ccc(O)cc8CC[C@@H]7c7ccccc7)cc6)CC5)O3)CCN42)C(=O)N1 (stereo partly drawn) [Compound B239, 3-((4aS)-3-((8-(4-((1R,2S)-6-hydroxy-2-phenyl-1,2,3,4-tetrahydronaphthalen-1-yl)phenyl)-1,4-dioxa-8-azaspiro[4.5]decan-2-yl)methyl)-8-oxo-1,2,3,4,4a,5,8,10-octahydro-9H-pyrazino[1′,2′:4,5][1,4]oxazino[2,3-f]isoindol-9-yl)piperidine-2,6-dione] | 1 to 10 | 10 to 100 | 
O=C1CCC(N2Cc3cc4c(cc3C2=O)OC[C@@H]2CN(CC3COC5(CCN(c6ccc([C@@H]7c8ccc(O)cc8CC[C@@H]7c7ccccc7)cc6)CC5)OC3)CCN42)C(=O)N1 (stereo partly drawn) [Compound B242, 3-((S)-3-((9-(4-((1R,2S)-6-hydroxy-2-phenyl-1,2,3,4-tetrahydronaphthalen-1-yl)phenyl)-1,5-dioxa-9-azaspiro[5.5]undecan-3-yl)methyl)-8-oxo-1,2,3,4,4a,5,8,10-octahydro-9H-pyrazino[1′,2′:4,5][1,4]oxazino[2,3-f]isoindol-9-yl)piperidine-2,6-dione] | < 1 | < 10 | 
O=C1CCC(N2Cc3c(ccc4c3N3CCN(CC5CCN(c6ccc([C@@H]7c8ccc(O)cc8CC[C@@H]7c7ccccc7)cc6)CC5)C[C@H]3CO4)C2=O)C(=O)N1 (stereo partly drawn) [Compound B243, 3-((S)-9-((1-(4-((1R,2S)-6-hydroxy-2-phenyl-1,2,3,4-tetrahydronaphthalen-1-yl)phenyl)piperidin-4-yl)methyl)-3-oxo-1,3,7,7a,8,9,10,11-octahydro-2H-pyrazino[1′,2′:4,5][1,4]oxazino[3,2-e]isoindol-2-yl)piperidine-2,6-dione] | 1 to 10 | 10 to 100 | 
O=C1CCC(N2Cc3c(ccc4c3OC[C@H]3CN(C(=O)CN5CC(Oc6ccc([C@@H]7c8ccc(O)cc8CC[C@@H]7c7ccccc7)cc6)C5)CCN43)C2=O)C(=O)N1 (stereo partly drawn) [Compound B245, 3-((R)-7-(2-(3-(4-((1R,2S)-6-hydroxy-2-phenyl-1,2,3,4-tetrahydronaphthalen-1-yl)phenoxy)azetidin-1-yl)acetyl)-1-oxo-1,3,5,5a,6,7,8,9-octahydro-2H-pyrazino[1′,2′:4,5][1,4]oxazino[2,3-e]isoindol-2-yl)piperidine-2,6-dione] | < 1 | 10 to 100 | 
O=C1CCC(N2Cc3c(ccc4c3OC[C@H]3CN(CC(=O)N5CC(Oc6ccc([C@@H]7c8ccc(O)cc8CC[C@@H]7c7ccccc7)cc6)C5)CCN43)C2=O)C(=O)N1 (stereo partly shown) [Compound B246] | < 1 | < 10 | 
O=C1CCC(N2Cc3c(ccc4c3OC[C@@H]3CN(C(=O)CN5CC(Oc6ccc([C@@H]7c8ccc(O)cc8CC[C@@H]7c7ccccc7)cc6)C5)CCN43)C2=O)C(=O)N1 (stereo partly drawn) [Compound B248, 3-((S)-7-(2-(3-(4-((1R,2S)-6-hydroxy-2-phenyl-1,2,3,4-tetrahydronaphthalen-1-yl)phenoxy)azetidin-1-yl)acetyl)-1-oxo-1,3,5,5a,6,7,8,9-octahydro-2H-pyrazino[1′,2′:4,5][1,4]oxazino[2,3-e]isoindol-2-yl)piperidine-2,6-dione] | < 1 | 10 to 100 | 
O=C1CCC(N2Cc3c(ccc4c3OC[C@H]3CN(C(=O)CN5CC(Nc6ccc([C@@H]7c8ccc(O)cc8CC[C@@H]7c7ccccc7)cc6)C5)CCN43)C2=O)C(=O)N1 (stereo partly drawn) [Compound B250, 3-((R)-7-(2-(3-((4-((1R,2S)-6-hydroxy-2-phenyl-1,2,3,4-tetrahydronaphthalen-1-yl)phenyl)amino)azetidin-1-yl)acetyl)-1-oxo-1,3,5,5a,6,7,8,9-octahydro-2H-pyrazino[1′,2′:4,5][1,4]oxazino[2,3-e]isoindol-2-yl)piperidine-2,6-dione] | < 1 | 10 to 100 | 
CN(C(=O)c1ccc2c(c1)OC[C@H]1CN(CC3CCN(c4ccc([C@@H]5c6ccc(O)cc6CC[C@@H]5c5ccccc5)cc4)CC3)CCN21)C1CCC(=O)NC1=O (stereo partly drawn) [Compound B255, (4aR)-N-(2,6-dioxopiperidin-3-yl)-3-((1-(4-((1R,2S)-6-hydroxy-2-phenyl-1,2,3,4-tetrahydronaphthalen-1-yl)phenyl)piperidin-4-yl)methyl)-N-methyl-1,2,3,4,4a,5-hexahydrobenzo[b]pyrazino[1,2-d][1,4]oxazine-8-carboxamide] | 1 to 10 | 10 to 100 | 
O=C1CC[C@H](NC(=O)c2ccc3c(c2)OC[C@H]2CN(CC4CCN(c5ccc([C@@H]6c7ccc(O)cc7CC[C@@H]6c6ccccc6)cc5)CC4)CCN32)C(=O)N1 [Compound B256, (R)-N-((S)-2,6-dioxopiperidin-3-yl)-3-((1-(4-((1R,2S)-6-hydroxy-2-phenyl-1,2,3,4-tetrahydronaphthalen-1-yl)phenyl)piperidin-4-yl)methyl)-1,2,3,4,4a,5-hexahydrobenzo[b]pyrazino[1,2-d][1,4]oxazine-8-carboxamide] | 1 to 10 | 10 to 100 | 
O=C1CC[C@H](NC(=O)c2ccc3c(c2)OC[C@@H]2CN(CC4CCN(c5ccc([C@@H]6c7ccc(O)cc7CC[C@@H]6c6ccccc6)cc5)CC4)CCN32)C(=O)N1 [Compound B257, (S)-N-((S)-2,6-dioxopiperidin-3-yl)-3-((1-(4-((1R,2S)-6-hydroxy-2-phenyl-1,2,3,4-tetrahydronaphthalen-1-yl)phenyl)piperidin-4-yl)methyl)-1,2,3,4,4a,5-hexahydrobenzo[b]pyrazino[1,2-d][1,4]oxazine-8-carboxamide] | 1 to 10 | > 100 | 
O=C1CCC(N2Cc3c(ccc4c3OCC43CCN(CC4CCN(c5ccc([C@@H]6c7ccc(O)cc7CC[C@@H]6c6ccccc6)cc5)CC4)CC3)C2=O)C(=O)N1 (stereo partly drawn) [Compound B258, 3-(1′-((1-(4-((1R,2S)-6-hydroxy-2-phenyl-1,2,3,4-tetrahydronaphthalen-1-yl)phenyl)piperidin-4-yl)methyl)-6-oxo-6,8-dihydro-2H,7H-spiro[furo[2,3-e]isoindole-3,4′-piperidin]-7-yl)piperidine-2,6-dione] |  | 10 to 100 | < 1
O=C1CCC(N2Cc3c(ccc4c3OC[C@@H]3CN(CC5CCN(c6ccc([C@@H]7c8ccc(O)cc8CC[C@@H]7c7ccccc7)cc6)CC5)CCN43)C2=O)C(=O)N1 (stereo partly drawn) [Compound B306, 3-((S)-7-((1-(4-((1R,2S)-6-hydroxy-2-phenyl-1,2,3,4-tetrahydronaphthalen-1-yl)phenyl)piperidin-4-yl)methyl)-1-oxo-1,3,5,5a,6,7,8,9-octahydro-2H-pyrazino[1′,2′:4,5][1,4]oxazino[2,3-e]isoindol-2-yl)piperidine-2,6-dione] | < 1 | > 100 | 
O=C1CCC(N2Cc3cc4c(cc3C2=O)OC[C@@H]2C[C@H](NCC3CCN(c5ccc([C@@H]6c7ccc(O)cc7CC[C@@H]6c6ccccc6)cc5)CC3)CN42)C(=O)N1 (stereo partly drawn) [Compound B307, 3-((2S,3aS)-2-(((1-(4-((1R,2S)-6-hydroxy-2-phenyl-1,2,3,4-tetrahydronaphthalen-1-yl)phenyl)piperidin-4-yl)methyl)amino)-7-oxo-2,3,3a,4,7,9-hexahydro-1H,8H-pyrrolo[1′,2′:4,5][1,4]oxazino[2,3-f]isoindol-8-yl)piperidine-2,6-dione] | 1 to 10 | > 100 | 
CN(CC1CCN(c2ccc([C@@H]3c4ccc(O)cc4CC[C@@H]3c3ccccc3)cc2)CC1)[C@H]1C[C@H]2COc3cc4c(cc3N2C1)CN(C1CCC(=O)NC1=O)C4=O (stereo partly drawn) [Compound B310, 3-((2S,3aS)-2-(((1-(4-((1R,2S)-6-hydroxy-2-phenyl-1,2,3,4-tetrahydronaphthalen-1-yl)phenyl)piperidin-4-yl)methyl)(methyl)amino)-7-oxo-2,3,3a,4,7,9-hexahydro-1H,8H-pyrrolo[1′,2′:4,5][1,4]oxazino[2,3-f]isoindol-8-yl)piperidine-2,6-dione] | < 1 | > 100 | 
CCN(CC1CCN(c2ccc([C@@H]3c4ccc(O)cc4CC[C@@H]3c3ccccc3)cc2)CC1)[C@H]1C[C@H]2COc3cc4c(cc3N2C1)CN(C1CCC(=O)NC1=O)C4=O (stereo partly drawn) [Compound B311, 3-((2S,3aS)-2-(ethyl((1-(4-((1R,2S)-6-hydroxy-2-phenyl-1,2,3,4-tetrahydronaphthalen-1-yl)phenyl)piperidin-4-yl)methyl)amino)-7-oxo-2,3,3a,4,7,9-hexahydro-1H,8H-pyrrolo[1′,2′:4,5][1,4]oxazino[2,3-f]isoindol-8-yl)piperidine-2,6-dione] | < 1 | > 100 | 
CN(C(=O)c1ccc2c(c1)OC[C@@H]1CN(CC3CC4(CCN(c5ccc([C@@H]6c7ccc(O)cc7CC[C@@H]6c6ccccc6)cc5)CC4)C3)CCN21)C1CCC(=O)NC1=O (stereo partly drawn) [Compound B312, (4aS)-N-(2,6-dioxopiperidin-3-yl)-3-((7-(4-((1R,2S)-6-hydroxy-2-phenyl-1,2,3,4-tetrahydronaphthalen-1-yl)phenyl)-7-azaspiro[3.5]nonan-2-yl)methyl)-N-methyl-1,2,3,4,4a,5-hexahydrobenzo[b]pyrazino[1,2-d][1,4]oxazine-8-carboxamide] | < 1 | > 100 | 

From US20260028354A1, “TETRAHYDRONAPHTHALENE DERIVATIVES AS ESTROGEN RECEPTOR DEGRADERS” (REGENT OF THE UNIVERSITY OF MICHIGAN, priority 2022, published 2026)
